Experiments:
[1] = target: T1, H. pylori-produced urease [H.pylori産生ウレアーゼ] (Helicobacter pylori, UniProt P69996); conditions: cited from earlier work; for inhibition of H. pylori-produced urease: Antimicrobial Agents and Chemotherapy, 37(4), 769-774, 1993
Target sequence in this assay (P69996 whole entry): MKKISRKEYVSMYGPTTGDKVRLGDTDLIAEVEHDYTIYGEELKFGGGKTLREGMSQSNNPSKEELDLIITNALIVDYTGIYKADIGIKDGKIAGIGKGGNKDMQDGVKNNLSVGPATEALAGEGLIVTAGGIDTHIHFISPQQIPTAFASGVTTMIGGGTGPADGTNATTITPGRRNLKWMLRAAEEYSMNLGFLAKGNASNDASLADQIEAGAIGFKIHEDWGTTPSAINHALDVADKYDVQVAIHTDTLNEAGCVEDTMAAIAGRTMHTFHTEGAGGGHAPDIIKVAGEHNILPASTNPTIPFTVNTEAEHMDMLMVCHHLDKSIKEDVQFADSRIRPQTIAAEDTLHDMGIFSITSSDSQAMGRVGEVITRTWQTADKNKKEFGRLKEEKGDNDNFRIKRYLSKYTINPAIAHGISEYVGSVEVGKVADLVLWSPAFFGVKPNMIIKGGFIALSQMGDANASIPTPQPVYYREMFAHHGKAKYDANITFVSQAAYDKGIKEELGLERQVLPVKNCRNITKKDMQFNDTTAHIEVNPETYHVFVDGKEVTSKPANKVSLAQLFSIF
Target sequence in this assay (P14916 whole entry, further chain): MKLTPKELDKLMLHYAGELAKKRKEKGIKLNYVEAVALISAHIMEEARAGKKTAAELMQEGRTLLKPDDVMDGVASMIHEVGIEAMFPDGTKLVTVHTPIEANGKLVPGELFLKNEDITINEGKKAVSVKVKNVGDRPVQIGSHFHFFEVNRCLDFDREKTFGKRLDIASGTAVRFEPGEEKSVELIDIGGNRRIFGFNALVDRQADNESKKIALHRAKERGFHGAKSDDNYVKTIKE

[2] = test system: a wide range of ureases [幅広い種類のウレアーゼ]; test: Urease inhibition across ureases (tables 2 and 4 taken together); format: biochemical; conditions: from tables 2 and 4
[3] = target: T1, H. pylori-produced urease [H.pylori産生ウレアーゼ]; format: biochemical, Helicobacter pylori (ATCC43504)
Target sequence in this assay (P69996 whole entry, looked up): as the sequence (P69996 whole entry) above

[4] = target: jack bean urease [なた豆ウレアーゼ] (Canavalia ensiformis, UniProt P07374); test: Inhibition of jack bean urease (inhibition test example 1); format: biochemical; conditions: from tables 2 and 4
Chain of jack bean urease [なた豆ウレアーゼ] (P07374 whole entry, looked up): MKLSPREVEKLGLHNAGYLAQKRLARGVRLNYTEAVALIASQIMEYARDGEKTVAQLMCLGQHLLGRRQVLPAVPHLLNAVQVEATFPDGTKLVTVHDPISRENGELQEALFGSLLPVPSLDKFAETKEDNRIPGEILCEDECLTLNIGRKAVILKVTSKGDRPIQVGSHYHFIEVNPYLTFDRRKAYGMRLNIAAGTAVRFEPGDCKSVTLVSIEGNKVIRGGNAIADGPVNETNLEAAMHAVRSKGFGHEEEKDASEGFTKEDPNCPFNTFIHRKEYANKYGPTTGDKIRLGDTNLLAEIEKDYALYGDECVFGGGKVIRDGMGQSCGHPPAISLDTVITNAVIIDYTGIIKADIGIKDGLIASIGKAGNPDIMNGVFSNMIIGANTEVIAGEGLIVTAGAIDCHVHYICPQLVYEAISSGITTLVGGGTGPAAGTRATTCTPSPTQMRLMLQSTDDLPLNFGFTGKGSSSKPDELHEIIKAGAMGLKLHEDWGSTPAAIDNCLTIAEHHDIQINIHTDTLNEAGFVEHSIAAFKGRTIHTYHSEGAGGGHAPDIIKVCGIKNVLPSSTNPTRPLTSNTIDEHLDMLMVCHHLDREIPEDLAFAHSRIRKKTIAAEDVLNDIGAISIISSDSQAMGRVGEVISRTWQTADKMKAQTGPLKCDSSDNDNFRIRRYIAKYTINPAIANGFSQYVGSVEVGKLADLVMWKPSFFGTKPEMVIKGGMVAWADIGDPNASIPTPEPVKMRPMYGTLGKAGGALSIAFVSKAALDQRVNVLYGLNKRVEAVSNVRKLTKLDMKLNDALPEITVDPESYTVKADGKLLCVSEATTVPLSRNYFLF

[5] = Acute toxicity test, single dose, intravenous and oral; format: in vivo, Slc:SD rats and Slc:ICR mice; conditions: rats and mice

SMILES	inhibition of H. pylori-produced urease [1]	anti-urease activity relative to acetohydroxamic acid ([1]; disclosed in Antimicrobial Agents and Chemotherapy, compared with acetohydroxamic acid)	inhibitory action on a wide range of ureases [2]	H. pylori-produced urease inhibitory action [3]	activity relative to control substance (times stronger) ([3]; H. pylori-produced urease, control substance acetohydroxamic acid)	inhibitory activity on H. pylori-produced urease, compared with reference substances ([3]; versus acetohydroxamic acid, caprylohydroxamic acid, nicotinohydroxamic acid, benzohydroxamic acid, omeprazole and lansoprazole, from tables 2, 3 and 4)	inhibitory action on jack bean urease [4]	selectivity ratio ([5]; in vivo, intravenous and oral, multiple of the clinical dose by oral administration, read-out: LD50 values relative to the oral clinical dose)	safety ([5]; judged from LD50 values)
Cc1c(OCC(F)(F)F)ccnc1C[S+]([O-])c1nc2ccccc2[nH]1 (stereo not shown) [ランソプラゾール, 2−[3−メチル−4−(2,2,2−トリフルオロエトキシ)ピリジン−2−イル]メチルスルフィニル−1H−ベンズイミダゾール]	阻害する	~2 fold							
COc1ccc2[nH]c([S+]([O-])Cc3ncc(C)c(OC)c3C)nc2c1 (stereo not shown) [オメプラゾール, 5−メトキシ−2−(4−メトキシ−3,5−ジメチルピリジン−2−イル)メチルスルフィニル−1H−ベンズイミダゾール]	阻害する								
COCCCOc1ccnc(C[S+]([O-])c2nc3ccccc3[nH]2)c1C (stereo not shown) [本発明化合物, 2−[4−(3−メトキシプロポキシ)−3−メチルピリジン−2−イル]メチルスルフィニル−1H−ベンズイミダゾール]			阻害作用を示した	阻害作用を有している	~100 fold	優れた阻害活性を有する	阻害作用も有しており	≥ 5000	安全性は極めて高い

Source: patent publication JPH07118153A, “抗ウレアーゼ剤” (Eisai Co Ltd, priority 1993, dated 1995)
